Measurements published in US20050282818A1, “Ubiquitin ligase inhibitors” (Rigel Pharmaceuticals, Inc., priority 2004, published 2005).
Read-outs that look alike come from different tables or passages of the source.

Key:
[1] = target: T1, TRAF6/Uev1A/Ubc13 (Homo sapiens, UniProt Q9Y4K3); experiment: TRAF6/Uev1A/Ubc13 plate-based ubiquitin ligase assay; assay type: biochemical
T1 sequence (Q9Y4K3 1-522): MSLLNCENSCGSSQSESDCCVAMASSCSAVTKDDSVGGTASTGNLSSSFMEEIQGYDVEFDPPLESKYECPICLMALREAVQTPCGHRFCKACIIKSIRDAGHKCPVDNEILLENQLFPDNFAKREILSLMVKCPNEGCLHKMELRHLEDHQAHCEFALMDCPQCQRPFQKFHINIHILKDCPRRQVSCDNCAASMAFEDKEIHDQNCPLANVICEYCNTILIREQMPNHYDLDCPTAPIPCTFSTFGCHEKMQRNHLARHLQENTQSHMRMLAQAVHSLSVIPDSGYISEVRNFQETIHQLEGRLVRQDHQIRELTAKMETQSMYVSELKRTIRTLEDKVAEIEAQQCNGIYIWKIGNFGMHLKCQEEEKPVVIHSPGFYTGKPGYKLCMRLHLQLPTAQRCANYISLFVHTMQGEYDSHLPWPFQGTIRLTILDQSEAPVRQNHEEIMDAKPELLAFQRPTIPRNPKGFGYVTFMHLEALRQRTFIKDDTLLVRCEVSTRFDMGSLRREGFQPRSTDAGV
Procedure, shortened: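 Ligase activity was read as luminescence from anti-Flag/HRP detection of Flag-ubiquitin bound to casein-blocked Ni-plates alongside His-ubiquitin after a 1 h room-temperature reaction. Buffer: 62.5 mM Tris pH 7.5, 6.25 mM MgCl2, 1.0 mM DTT, 2 μM ATP; E1, Uev1a/Ubc13 and TRAF6 added last to start. IC50s derived across compound concentrations.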

[2] = test system: A549 cells; experiment: Cell proliferation PAD assay, A549; assay type: cell-based; settings: Homo sapiens, 48 hours
Procedure, shortened: (§1)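 Cells plated at 2,000/well; compounds added 24 h later as 6.3-fold dilutions from a 10 mM master stock, diluted 500-fold into wells, in duplicate. After 48 h at 37 °C, 5% CO2, cells were formamide-fixed, DAPI-stained and imaged to count live, apoptotic and dead cells.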

[3] = test system: H1299 cells; experiment: Cell proliferation PAD assay, H1299; assay type: cell-based; settings: Homo sapiens, 48 hours
Procedure, shortened: as §1

[4] = NCI-H1299, 3pt, read-out: H1299 3pt
[5] = NCI-H1299, 6pt, read-out: H1299 6pt

Structure (SMILES) | IC50 [1] [µM] | IC50 ([2]; 3pt, read-out: A549 3pt) [µM] | IC50 [3, 4] [µM] | IC50 ([2]; 6pt, read-out: A549 6pt) [µM] | IC50 [3, 5] [µM]
O=S(=O)(Nc1ccc(Oc2ccc(Cl)cc2)cc1)c1cccc2nonc12 [compound 104, N-[4-(4-chlorophenoxy)phenyl]-2,1,3-benzoxadiazole-4-sulfonamide] | ≥ 20 | ≥ 20 | ≥ 20 | – | –
O=S(=O)(Nc1cccc2nonc12)c1ccc(Oc2ccncc2)cc1 [compound 80, N-2,1,3-benzoxadiazol-4-yl-4-(pyridin-4-yloxy)benzenesulfonamide] | ≥ 20 | ≥ 20 | ≥ 20 | – | –
O=[N+]([O-])c1ccc(N2CCC(Oc3ccccc3C(F)(F)F)CC2)c2nonc12 [compound 233, 4-nitro-7-{4-[2-(trifluoromethyl)phenoxy]piperidin-1-yl}-2,1,3-benzoxadiazole] | < 1 | ≥ 20 | ≥ 20 | – | –
O=[N+]([O-])c1ccc(N2CCN(c3c(Cl)cncc3Cl)CC2)c2nonc12 [compound 151, 4-[4-(3,5-dichloropyridin-4-yl)piperazin-1-yl]-7-nitro-2,1,3-benzoxadiazole] | 1 to 20 | ≥ 20 | ≥ 20 | – | –
O=S(=O)(Nc1cccc2nonc12)c1ccc(Oc2cccnc2)cc1 [compound 86, N-2,1,3-benzoxadiazol-4-yl-4-(pyridin-3-yloxy)benzenesulfonamide] | ≥ 20 | ≥ 20 | ≥ 20 | – | –
N#Cc1cccnc1N1CCN(c2ccc([N+](=O)[O-])c3nonc23)CC1 [compound 118, 2-[4-(7-nitro-2,1,3-benzoxadiazol-4-yl)piperazin-1-yl]nicotinonitrile] | 1 to 20 | ≥ 20 | ≥ 20 | – | –
O=[N+]([O-])c1ccc(N2CCN(c3cccc(C(F)(F)F)c3)CC2)c2nonc12 [compound 106, 4-nitro-7-{4-[3-(trifluoromethyl)phenyl]piperazin-1-yl}-2,1,3-benzoxadiazole] | ≥ 20 | ≥ 20 | ≥ 20 | – | –
O=[N+]([O-])c1ccc(N2CCC(c3ccncc3)CC2)c2nonc12 [compound 283, 4-nitro-7-(4-pyridin-4-ylpiperidin-1-yl)-2,1,3-benzoxadiazole] | ≥ 20 | ≥ 20 | ≥ 20 | – | –
CN1CCN(c2ccc([N+](=O)[O-])c3nonc23)CC1 [compound 110, 4-(4-methylpiperazin-1-yl)-7-nitro-2,1,3-benzoxadiazole] | ≥ 20 | ≥ 20 | ≥ 20 | – | –
Cc1ccnc(N2CCN(c3ccc([N+](=O)[O-])c4nonc34)CC2)c1 [compound 154, 4-[4-(4-methylpyridin-2-yl)piperazin-1-yl]-7-nitro-2,1,3-benzoxadiazole] | ≥ 20 | ≥ 20 | ≥ 20 | – | –
O=S(=O)(Nc1ccc2[nH]ncc2c1)c1ccc(Sc2cccc3cccnc23)c2nonc12 [compound 224, N-1H-indazol-5-yl-7-(quinolin-8-ylthio)-2,1,3-benzoxadiazole-4-sulfonamide] | ≥ 20 | 1 to 20 | ≥ 20 | – | –
CC1CN(c2ccc([N+](=O)[O-])c3nonc23)CC(C)O1 (centres unmarked) [compound 161, 4-(2,6-dimethylmorpholin-4-yl)-7-nitro-2,1,3-benzoxadiazole] | ≥ 20 | ≥ 20 | ≥ 20 | – | –
O=[N+]([O-])c1ccc(Oc2ccc(NS(=O)(=O)c3cccc4nonc34)cc2)cc1 [compound 101, N-[4-(4-nitrophenoxy)phenyl]-2,1,3-benzoxadiazole-4-sulfonamide] | ≥ 20 | ≥ 20 | ≥ 20 | – | –
CC1CN(c2ccc3nonc3c2S(=O)(=O)N2CC(C)OC(C)C2)CC(C)O1 (centres unmarked) [compound 205, 5-(2,6-dimethylmorpholin-4-yl)-4-[(2,6-dimethylmorpholin-4-yl)sulfonyl]-2,1,3-benzoxadiazole] | ≥ 20 | ≥ 20 | 1 to 20 | – | –
CC1(C)CCN(c2ccc([N+](=O)[O-])c3nonc23)CC1 [compound 242, 4-(4,4-dimethylpipendin-1-yl)-7-nitro-2,1,3-benzoxadiazole] | ≥ 20 | – | – | ≥ 20 | ≥ 20
O=[N+]([O-])c1ccc(N2CCC(Oc3ncccn3)CC2)c2nonc12 [compound 280, 4-nitro-7-[4-(pyrimidin-2-yloxy)piperidin-1-yl]-2,1,3-benzoxadiazole] | ≥ 20 | ≥ 20 | ≥ 20 | – | –

Other lines, results leading:

IC50 [1] [µM] | IC50 ([2]; 3pt, read-out: A549 3pt) [µM] | IC50 [3, 4] [µM] | IC50 ([2]; 6pt, read-out: A549 6pt) [µM] | IC50 [3, 5] [µM] | Structure (SMILES)
≥ 20 | ≥ 20 | ≥ 20 | – | – | O=S(=O)(Nc1ccc(Oc2ncc(C(F)(F)F)cc2Cl)cc1)c1cccc2nonc12 [compound 62, N-(4-{[3-chloro-5-(trifluoromethyl)pyridin-2-yl]oxy}phenyl)-2,1,3-benzoxadiazole-4-sulfonamide]
≥ 20 | ≥ 20 | ≥ 20 | – | – | O=S(=O)(Nc1cccc2cnccc12)c1cccc2nonc12 [compound 12, N-isoquinolin-5-yl-2,1,3-benzoxadiazole-4-sulfonamide]
≥ 20 | ≥ 20 | ≥ 20 | – | – | O=[N+]([O-])c1ccc(N2CCN(c3ccccc3)CC2)c2nonc12 [compound 143, 4-nitro-7-(4-phenylpiperazin-1-yl)-2,1,3-benzoxadiazole]
1 to 20 | 1 to 20 | 1 to 20 | – | – | O=S(=O)(c1ccc(F)c2nonc12)N1CCC(Oc2ccccc2C(F)(F)F)CC1 [compound 232, 4-fluoro-7-({4-[2-(trifluoromethyl)phenoxy]piperidin-1-yl}sulfonyl)-2,1,3-benzoxadiazole]
1 to 20 | ≥ 20 | ≥ 20 | – | – | COc1ccc(S(=O)(=O)N2CCN(c3ncc(C(F)(F)F)cc3Cl)CC2)c2nonc12 [compound 163, 4-({4-[3-chloro-5-(trifluoromethyl)pyridin-2-yl]piperazin-1-yl}sulfonyl)-7-methoxy-2,1,3-benzoxadiazole]
≥ 20 | ≥ 20 | ≥ 20 | – | – | O=S(=O)(Nc1ccc(Oc2ncccn2)c(Cl)c1)c1cccc2nonc12 [compound 91, N-[3-chloro-4-(pyrimidin-2-yloxy)phenyl]-2,1,3-benzoxadiazole-4-sulfonamide]
≥ 20 | ≥ 20 | ≥ 20 | – | – | O=S(=O)(Nc1ccc(Oc2cc(C(F)(F)F)ccn2)cc1)c1cccc2nonc12 [compound 103, N-(4-{[4-(trifluoromethyl)pyridin-2-yl]oxy}phenyl)-2,1,3-benzoxadiazole-4-sulfonamide]
≥ 20 | 1 to 20 | 1 to 20 | ≥ 20 | ≥ 20 | O=S(=O)(c1ccc(Cl)c2nonc12)N1CCN(c2ccc(O)cc2)CC1 [compound 172, 4-{4-[(7-chloro-2,1,3-benzoxadiazol-4-yl)sulfonyl]piperazin-1-yl}phenol]
1 to 20 | ≥ 20 | ≥ 20 | – | – | O=[N+]([O-])c1ccc(N2CCN(c3ccc4ccccc4n3)CC2)c2nonc12 [compound 155, 2-[4-(7-nitro-2,1,3-benzoxadiazol-4-yl)piperadin-1-yl]quinoline]
≥ 20 | – | – | < 1 | ≥ 20 | CC1(C)CCN(S(=O)(=O)c2ccc(F)c3nonc23)CC1 [compound 243, 4-[(4,4-dimethylpiperidin-1-yl)sulfonyl]-7-fluoro-2,1,3-benzoxadiazole]
≥ 20 | ≥ 20 | ≥ 20 | – | – | O=S(=O)(Nc1cccc2nonc12)c1ccc(Oc2ccccc2)cn1 [compound 87, N-2,1,3-benzoxadiazol-4-yl-5-phenoxypyridine-2-sulfonamide]
≥ 20 | ≥ 20 | ≥ 20 | – | – | Cc1ccc(F)cc1NS(=O)(=O)c1cccc2nonc12 [compound 13, N-(5-fluoro-2-methylphenyl)-2,1,3-benzoxadiazole-4-sulfonamide]
≥ 20 | 1 to 20 | ≥ 20 | – | – | O=[N+]([O-])c1ccc(N2CCN(c3ccncc3)CC2)c2nonc12 [compound 108, 4-nitro-7-(4-pyridin-4-ylpiperazin-1-yl)-2,1,3-benzoxadiazole]
1 to 20 | 1 to 20 | 1 to 20 | – | – | O=S(=O)(c1ccc(Cl)c2nonc12)N1CCC(Oc2ccccc2C(F)(F)F)CC1 [compound 230, 4-chloro-7-({4-[2-(trifluoromethyl)phenoxy]piperidin-1-yl}sulfonyl)-2,1,3-benzoxadiazole]
≥ 20 | 1 to 20 | 1 to 20 | – | – | Nc1ccc(N2CCN(c3ncc(C(F)(F)F)cc3Cl)CC2)c2nonc12 [compound 279, 7-{4-[3-chloro-5-(trifluoromethyl)pyridin-2-yl]piperazin-1-yl}-2,1,3-benzoxadiazol-4-amine]
